From paper PMC6273991, “Cytotoxic Labdane Diterpenes from Hedychium ellipticum Buch.-Ham. ex Sm” (Molecules, 2016)
Converted amounts (≈) assume the structure as drawn. “And” between values parts separate entries of the source, which are not always exact repeats. Identical values can stand only once. Like-named read-outs stand apart in the source and are kept apart here.

Legend:
[1] = test system: human breast cancer cell (MCF7); assay: Cytotoxicity, resazurin microplate assay (REMA), MCF7; conditions: for IC50: Homo sapiens, MCF7, 120 h, read-out: Cytotoxicity (IC50) MCF7; for Selectivity Index MCF7: IC50 on Vero cells divided by IC50 for MCF7 cells; for Cytotoxicity (IC50) MCF7: MCF7 cells, REMA, 5 days
[2] = test system: human oral cavity cancer cell (KB); assay: Cytotoxicity, resazurin microplate assay (REMA), KB; conditions: for IC50: Homo sapiens, KB, 120 h, read-out: Cytotoxicity (IC50) KB, KB cells, REMA, 5 days; for Selectivity Index KB: IC50 on Vero cells divided by IC50 for KB cells; for Cytotoxicity (IC50) KB: KB cells, REMA, 5 days
[3] = test system: human small cell lung cancer cell (NCI-H187); assay: Cytotoxicity, resazurin microplate assay (REMA), NCI-H187; conditions: for IC50: Homo sapiens, NCI-H187, 120 h, read-out: Cytotoxicity (IC50) NCI-H187; for Selectivity Index NCI-H187: IC50 on Vero cells divided by IC50 for NCI-H187 cells
[4] = test system: Mycobacterium tuberculosis H37Ra; assay: Antimycobacterial activity, green fluorescent protein microplate assay (GFPMA); assay type: cell-based; conditions: M. tuberculosis H37Ra, MIC = lowest concentration effecting inhibition of ≥90%; for MIC: Mycobacterium tuberculosis, read-out: Anti-TB (MIC)
Experimental: The antimycobacterial activity was assessed against Mycobacterium tuberculosis H37Ra using the green fluorescent protein microplate assay (GFPMA). The lowest drug concentration effecting and inhibition of ≥90% was considered the MIC.

[5] = in vitro; conditions: African green monkey, Vero cells (African green monkey kidney, non-cancerous)
[6] = test system: NCI-H187 cell; conditions: cited from earlier work
[7] = test system: P388 cells; set-up: method as in PMID 9873721; conditions: cited from earlier work
[8] = test system: SNU-1 cells; set-up: method as in PMID 9873721; conditions: cited from earlier work
[9] = test system: B16 cells; set-up: method as in PMID 9873721; conditions: cited from earlier work
[10] = test system: African green monkey kidney (Vero) cell line; assay: Cytotoxicity against non-cancerous cells, GFP detection; conditions: 4 days, Undetectable = at concentration ≤50 μg/mL
[11] = test system: V-79 cell; set-up: method as in PMID 3222377, PMID 21106458; conditions: cited from earlier work
[12] = test system: MCF-7 cells; set-up: method as in PMID 21106458; conditions: read-out: LC50 MCF-7 cells; cited from earlier work
[13] = test system: A-549 cell line; set-up: method as in PMID 21106458; conditions: read-out: LC50 A-549 cell line; cited from earlier work
[14] = test system: SK-N-SH cells; set-up: method as in PMID 21106458; conditions: read-out: LC50 SK-N-SH cells; cited from earlier work
[15] = test system: HeLa cells; set-up: method as in PMID 21106458; conditions: cited from earlier work
[16] = test system: KB cell; set-up: method as in PMID 18932088; conditions: cited from earlier work

SMILES	IC50 [1]	IC50 [2]	IC50 ([2]; value in parentheses)	Selectivity Index KB [2]	IC50 [3]	Selectivity Index NCI-H187 [3]	Anti-TB (MIC) [4]	IC50 at 4 days [5]	MIC [4]	other results
C=C1CC[C@H]2C(C)(C)CCC[C@]2(C)[C@H]1C[C@@H](O)C1=CC(O)OC1=O (stereo partly drawn) [Compound 10, zerumin B]	13.3 µg/mL and 39.7 µM	13.1 µg/mL	39.3 µM	1.9	6.14 µg/mL and 18.4 µM	4.0	Inactive	24.7 µg/mL and 73.8 µM	–	Selectivity Index MCF7 [1]: 1.9
C=C1CC[C@H]2C(C)(C)CCC[C@]2(C)[C@H]1/C=C/c1ccoc1 [Compound 1, coronarin E]	–	9.67 µg/mL	34 µM	2.6	18.1 µg/mL and 63.5 µM	1.4	–	25.4 µg/mL and 89.2 µM	12.5 µg/mL (≈ 43.9 µM)	Cytotoxicity (IC50) MCF7 [1]: Inactive; IC50 [6]: 49.7 µM; IC50 P388 cells [7]: 10.0 µg/mL (≈ 35.2 µM); IC50 SNU-1 cells [8]: 8.0 µg/mL (≈ 28.1 µM); IC50 B16 cells [9]: 18.8 µg/mL (≈ 66.1 µM)
CC1COc2c(N3CCN(C)CC3)c(F)cc3c(=O)c(C(=O)O)cn1c23 (stereo not drawn) [oflaxacin, reference compound]	–	–	–	–	–	–	0.391 to 0.781 µg/mL	–	–	–
C=C1CC[C@H]2C(C)(C)CCC[C@]2(C)[C@H]1/C=C/C(C)=O [Compound 2, (E)-15,16-bisnorlabda-8(17),11-dien-13-one]	49.2 µg/mL and 189 µM	37 µg/mL	142 µM	–	21.7 µg/mL and 83.2 µM	–	Inactive	> 192 µM	–	melting point: 146 to 147 °C; Cytotoxicity (IC50) Vero Cell [10]: Undetectable ^2
[H]/N=C(/N)N[C@H]1[C@H](O)[C@@H](O)[C@H](O[C@@H]2O[C@@H](C)[C@](O)(C=O)[C@H]2O[C@@H]2O[C@@H](CO)[C@H](O)[C@@H](O)[C@@H]2NC)[C@@H](N/C(N)=N\[H])[C@@H]1O [streptomycin, reference compound]	–	–	–	–	–	–	–	–	0.156 to 0.313 µg/mL (≈ 0.268 to 0.538 µM)	–
COc1cccc2c1C(=O)c1c(O)c3c(c(O)c1C2=O)C[C@@](O)(C(=O)CO)C[C@@H]3O[C@H]1C[C@H](N)[C@H](O)[C@H](C)O1 [Doxorubicin, reference compound]	0.663 µg/mL and 1.22 µM	0.117 µg/mL	0.22 µM	–	0.053 µg/mL and 100 nM	–	–	–	–	–
C=C1CC[C@H]2C(C)(C)CCC[C@]2(C)[C@H]1/C=C/C1=CC(=O)OC1O (stereo partly drawn) [Compound 7, 16-hydroxylabda-8(17),11,13-trien-15,16-olide]	2.89 µg/mL and 8.75 µM	0.92 µg/mL	2.75 µM	5.9	0.72 µg/mL and 2.18 µM	7.5	–	5.37 µg/mL and 16.2 µM	6.25 µg/mL (≈ 19.8 µM)	Selectivity Index MCF7 [1]: 1.9; Cytotoxicity (IC50) KB [2]: 0.91 µg/mL
CC[C@@H](CO)NCCN[C@@H](CC)CO [ethambutol, reference compound]	–	–	–	–	–	–	–	–	0.234 to 0.469 µg/mL (≈ 1.15 to 2.3 µM)	–
C=C1CC[C@H]2C(C)(C)CCC[C@]2(C)[C@H]1CC=C(C=O)CC(=O)O (stereo in doubt) [Compound 9, zerumin A]	–	47.4 µg/mL	149 µM	1.0	33.5 µg/mL and 105 µM	1.5	Inactive	49.5 µg/mL and 155 µM	–	Cytotoxicity (IC50) MCF7 [1]: Inactive
Cc1c2ccncc2c(C)c2c1[nH]c1ccccc12 [Ellipticine, reference compound]	–	0.302 µg/mL	1.23 µM	4.5	0.44 µg/mL and 1.79 µM	3.1	–	1.34 µg/mL and 5.46 µM	–	–
C=C1CC[C@H]2C(C)(C)CCC[C@]2(C)[C@H]1/C=C/C(=O)O [Compound 3, (E)-14,15,16-trinorlabda-8(17),11-dien-13-oic acid]	–	–	–	–	49.2 µg/mL and 188 µM	–	Inactive	> 191 µM	–	Cytotoxicity (IC50) MCF7 [1]: Inactive; Cytotoxicity (IC50) KB [2]: Inactive; Cytotoxicity (IC50) Vero Cell [10]: Undetectable ^2
C=C1CC[C@H]2C(C)(C)CCC[C@]2(C)[C@H]1C/C=C(/C=O)CC=O [Compound 5, (E)-labda-8(17),12-dien-15,16-dial]	22.6 µg/mL and 74.6 µM	29.1 µg/mL	96 µM	0.8	11.2 µg/mL and 36.9 µM	2.0	Inactive	22.5 µg/mL and 74.5 µM	–	Selectivity Index MCF7 [1]: 1.0; IC50 V-79 cell [11]: 18.5 µg/mL (≈ 61.2 µM)
C=C1CC[C@H]2C(C)(C)CCC[C@]2(C)[C@H]1/C=C/C1=CCOC1=O [Compound 4, villosin]	8.5 µg/mL and 28.3 µM	4.1 µg/mL	13.7 µM	–	0.12 µg/mL and 400 nM	>416.7	Inactive	> 166 µM	–	Cytotoxicity (IC50) Vero Cell [10]: Undetectable ^2
C=C1CCC2C(C)(C)CCC[C@]2(C)[C@H]1/C=C/C1=CC(OC)OC1=O (stereo partly drawn) [Compound 6, 15-methoxylabda-8(17),11,13-trien-15,16-olide]	49.2 µg/mL and 149 µM	23.8 µg/mL	72.1 µM	1.9	0.9 µg/mL and 2.72 µM	50.7	Inactive	45.6 µg/mL and 138 µM	–	Selectivity Index MCF7 [1]: 0.9
NNC(=O)c1ccncc1 [isoniazid, reference compound]	–	–	–	–	–	–	–	–	0.0234 to 0.0468 µg/mL (≈ 0.171 to 0.341 µM)	–
CO[C@H]1/C=C/O[C@@]2(C)Oc3c(C)c(O)c4c(O)c(c(/C=N/N5CCN(C)CC5)c(O)c4c3C2=O)NC(=O)/C(C)=C\C=C\[C@H](C)[C@H](O)[C@@H](C)[C@@H](O)[C@@H](C)[C@H](OC(C)=O)[C@@H]1C [rifampicine, reference compound]	–	–	–	–	–	–	–	–	0.00312 to 0.025 µg/mL (≈ 0.00379 to 0.0304 µM)	–
C=C1CC[C@H]2C(C)(C)CCC[C@]2(C)[C@H]1C/C=C1\CC(O)OC1=O (stereo partly drawn) [Compound 8, coronarin D]	16.2 µg/mL and 51 µM	40 µg/mL	126 µM	1.2	25.7 µg/mL and 80.8 µM	1.9	Inactive	48.9 µg/mL and 154 µM	–	CC50 [12]: 21.9 µM; Selectivity Index MCF7 [1]: 3.0; IC50 NCI-H187 cell, previous reported [6]: 9.8 µg/mL (≈ 30.8 µM); IC50 V-79 cell [11]: 17.0 µg/mL (≈ 53.4 µM); CC50 [13]: 14 µM; CC50 [14]: 32 µM; LC50 [15]: 60.6 µM; IC50 KB cell, previous reported [16]: 14.7 µg/mL (≈ 46.2 µM)
